Data from patent publication US9340555B2, “Compounds as tyrosine kinase modulators” (Allergan, Inc., priority 2009, dated 2016).

Assays:
VEGFR2 = VEGFR2 (Homo sapiens (Human), UniProt P35968); assay: VEGF Stimulated Ca++ Signal In Vitro (Cellular VEGFR2, FLIPR); format: cell-based; settings: HUVEC, VEGF stimulation (5 ng/mL), intracellular calcium
[1] = biological target: human VEGF receptor (VEGFR-2) (Homo sapiens (Human), UniProt P35968); assay: VEGFR2 Kinase Assay (Enzymic VEGFR2); format: biochemical; settings: His-VEGFR-2 cytoplasmic domain, 3.6 µM ATP
Sequence of human VEGF receptor (VEGFR-2) (P35968 786-1356): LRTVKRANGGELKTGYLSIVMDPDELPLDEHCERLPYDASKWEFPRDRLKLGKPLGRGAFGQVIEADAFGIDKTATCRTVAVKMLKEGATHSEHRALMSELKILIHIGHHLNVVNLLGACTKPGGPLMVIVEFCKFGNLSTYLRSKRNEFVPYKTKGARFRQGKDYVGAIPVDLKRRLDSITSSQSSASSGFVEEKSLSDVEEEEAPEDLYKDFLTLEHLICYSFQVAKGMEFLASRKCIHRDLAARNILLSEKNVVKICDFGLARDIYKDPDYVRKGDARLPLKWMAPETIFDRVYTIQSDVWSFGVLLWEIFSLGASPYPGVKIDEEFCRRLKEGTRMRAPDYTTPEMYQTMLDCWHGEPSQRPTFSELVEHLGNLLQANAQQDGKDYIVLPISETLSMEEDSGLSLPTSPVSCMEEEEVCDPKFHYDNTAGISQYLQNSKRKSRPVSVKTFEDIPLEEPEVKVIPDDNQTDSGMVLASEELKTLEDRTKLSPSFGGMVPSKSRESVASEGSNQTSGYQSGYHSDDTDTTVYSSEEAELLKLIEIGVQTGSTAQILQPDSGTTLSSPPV
Protocol: VEGFR2 Kinase Assay The cytoplasmic domain of the human VEGF receptor (VEGFR-2) was expressed as a Histidine-tagged fusion protein following infection of insect cells using an His engineered baculovirus. […] Kinase assays were performed in 96 well microtiter plates that were coated overnight with 30 µg of poly-Glu-[…]:1) in 10 mM Phosphate Buffered Saline (PBS), pH 7.2-7.4. The plates were incubated with 1% BSA and then washed four times with PBS prior to starting the reaction. […] Reactions were initiated by the addition 0.5 ng of purified protein. Following a ten minute incubation at 25° C., the reactions were washed four times with PBS containing 0.05% Tween-20. 100 µl of a monoclonal anti-phosphotyrosine antibody-peroxidase conjugate was diluted 1:10000 in PBS-Tween-20 and added to the wells for 30 minutes. Following four washes with PBS-Tween-20, 100 µl of 0-phenylenediamine Dihydrochloride in Phosphate-citrate buffer, containing urea hydrogen peroxide, was added to the wells for 7 minutes as a colorimetric substrate for the peroxidase. […] IC50 values for compound inhibition were calculated directly from graphs of optical density (arbitrary units) versus compound concentration following subtraction of blank values.

PDGFRβ = PDGFRβ (Homo sapiens (Human), UniProt P09619); assay: Enzymic PDGFRβ; format: biochemical
Sequence of PDGFRβ (P09619 33-1106, species assumed): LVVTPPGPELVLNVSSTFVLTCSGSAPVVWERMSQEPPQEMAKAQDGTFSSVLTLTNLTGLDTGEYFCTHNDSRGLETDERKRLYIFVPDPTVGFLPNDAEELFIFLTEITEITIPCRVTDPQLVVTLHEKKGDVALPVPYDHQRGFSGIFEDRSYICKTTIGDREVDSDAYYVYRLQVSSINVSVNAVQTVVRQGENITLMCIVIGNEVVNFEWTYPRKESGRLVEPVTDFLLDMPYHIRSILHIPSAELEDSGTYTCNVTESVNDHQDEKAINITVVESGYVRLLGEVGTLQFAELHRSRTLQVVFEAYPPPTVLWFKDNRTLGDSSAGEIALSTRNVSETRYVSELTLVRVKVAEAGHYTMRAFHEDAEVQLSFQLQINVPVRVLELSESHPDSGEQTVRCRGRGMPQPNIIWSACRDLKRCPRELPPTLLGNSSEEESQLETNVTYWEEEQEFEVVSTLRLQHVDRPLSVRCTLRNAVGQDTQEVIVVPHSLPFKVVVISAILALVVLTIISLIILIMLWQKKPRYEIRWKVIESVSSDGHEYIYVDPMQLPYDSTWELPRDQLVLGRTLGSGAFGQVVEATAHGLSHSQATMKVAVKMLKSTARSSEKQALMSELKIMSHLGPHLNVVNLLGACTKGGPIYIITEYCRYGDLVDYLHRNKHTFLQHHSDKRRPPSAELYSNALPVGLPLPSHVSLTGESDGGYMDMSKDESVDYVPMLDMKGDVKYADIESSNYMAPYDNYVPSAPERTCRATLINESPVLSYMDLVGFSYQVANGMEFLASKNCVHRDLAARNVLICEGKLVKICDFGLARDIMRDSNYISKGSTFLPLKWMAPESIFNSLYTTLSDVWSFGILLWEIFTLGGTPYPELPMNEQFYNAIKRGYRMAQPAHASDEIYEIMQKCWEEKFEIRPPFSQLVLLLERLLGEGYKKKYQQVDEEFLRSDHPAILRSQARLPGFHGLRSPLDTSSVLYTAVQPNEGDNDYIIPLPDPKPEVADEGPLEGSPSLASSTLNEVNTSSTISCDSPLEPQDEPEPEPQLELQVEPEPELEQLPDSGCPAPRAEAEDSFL

VEGFR1 = VEGFR1 (Homo sapiens (Human), UniProt P17948); assay: Enzymic VEGFR1; format: biochemical
Sequence of VEGFR1 (P17948 27-1338, species assumed): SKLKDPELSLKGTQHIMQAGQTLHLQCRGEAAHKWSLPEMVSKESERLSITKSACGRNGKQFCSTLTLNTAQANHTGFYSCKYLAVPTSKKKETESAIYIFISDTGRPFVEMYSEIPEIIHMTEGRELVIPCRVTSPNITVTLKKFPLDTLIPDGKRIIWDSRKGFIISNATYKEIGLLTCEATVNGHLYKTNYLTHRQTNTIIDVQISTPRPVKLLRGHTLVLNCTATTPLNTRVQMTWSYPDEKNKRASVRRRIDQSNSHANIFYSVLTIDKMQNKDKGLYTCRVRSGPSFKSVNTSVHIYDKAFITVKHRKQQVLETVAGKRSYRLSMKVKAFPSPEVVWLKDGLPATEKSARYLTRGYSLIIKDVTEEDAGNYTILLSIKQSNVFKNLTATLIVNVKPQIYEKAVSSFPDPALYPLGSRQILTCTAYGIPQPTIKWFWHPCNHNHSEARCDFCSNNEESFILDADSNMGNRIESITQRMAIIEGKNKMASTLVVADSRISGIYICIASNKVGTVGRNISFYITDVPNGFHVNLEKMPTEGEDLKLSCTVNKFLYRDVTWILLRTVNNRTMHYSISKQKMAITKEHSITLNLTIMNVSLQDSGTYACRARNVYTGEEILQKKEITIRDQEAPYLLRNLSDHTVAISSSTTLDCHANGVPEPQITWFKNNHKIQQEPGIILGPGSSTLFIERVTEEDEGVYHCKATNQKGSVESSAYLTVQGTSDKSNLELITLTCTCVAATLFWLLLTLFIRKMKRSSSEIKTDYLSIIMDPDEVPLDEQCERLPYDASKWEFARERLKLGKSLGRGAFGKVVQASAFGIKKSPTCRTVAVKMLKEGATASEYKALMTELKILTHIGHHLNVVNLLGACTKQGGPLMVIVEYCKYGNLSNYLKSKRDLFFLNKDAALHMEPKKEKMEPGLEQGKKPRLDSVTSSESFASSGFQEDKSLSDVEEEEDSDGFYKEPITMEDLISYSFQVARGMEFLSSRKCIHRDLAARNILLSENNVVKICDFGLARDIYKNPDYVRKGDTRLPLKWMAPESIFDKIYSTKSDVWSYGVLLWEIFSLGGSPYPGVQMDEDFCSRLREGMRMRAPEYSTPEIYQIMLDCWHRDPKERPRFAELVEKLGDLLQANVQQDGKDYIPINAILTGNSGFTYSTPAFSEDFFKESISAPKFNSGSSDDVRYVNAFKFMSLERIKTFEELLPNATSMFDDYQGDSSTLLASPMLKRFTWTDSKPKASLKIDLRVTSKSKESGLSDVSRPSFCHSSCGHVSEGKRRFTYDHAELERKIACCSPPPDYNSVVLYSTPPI

Sequence of VEGFR2 (P35968 20-1356): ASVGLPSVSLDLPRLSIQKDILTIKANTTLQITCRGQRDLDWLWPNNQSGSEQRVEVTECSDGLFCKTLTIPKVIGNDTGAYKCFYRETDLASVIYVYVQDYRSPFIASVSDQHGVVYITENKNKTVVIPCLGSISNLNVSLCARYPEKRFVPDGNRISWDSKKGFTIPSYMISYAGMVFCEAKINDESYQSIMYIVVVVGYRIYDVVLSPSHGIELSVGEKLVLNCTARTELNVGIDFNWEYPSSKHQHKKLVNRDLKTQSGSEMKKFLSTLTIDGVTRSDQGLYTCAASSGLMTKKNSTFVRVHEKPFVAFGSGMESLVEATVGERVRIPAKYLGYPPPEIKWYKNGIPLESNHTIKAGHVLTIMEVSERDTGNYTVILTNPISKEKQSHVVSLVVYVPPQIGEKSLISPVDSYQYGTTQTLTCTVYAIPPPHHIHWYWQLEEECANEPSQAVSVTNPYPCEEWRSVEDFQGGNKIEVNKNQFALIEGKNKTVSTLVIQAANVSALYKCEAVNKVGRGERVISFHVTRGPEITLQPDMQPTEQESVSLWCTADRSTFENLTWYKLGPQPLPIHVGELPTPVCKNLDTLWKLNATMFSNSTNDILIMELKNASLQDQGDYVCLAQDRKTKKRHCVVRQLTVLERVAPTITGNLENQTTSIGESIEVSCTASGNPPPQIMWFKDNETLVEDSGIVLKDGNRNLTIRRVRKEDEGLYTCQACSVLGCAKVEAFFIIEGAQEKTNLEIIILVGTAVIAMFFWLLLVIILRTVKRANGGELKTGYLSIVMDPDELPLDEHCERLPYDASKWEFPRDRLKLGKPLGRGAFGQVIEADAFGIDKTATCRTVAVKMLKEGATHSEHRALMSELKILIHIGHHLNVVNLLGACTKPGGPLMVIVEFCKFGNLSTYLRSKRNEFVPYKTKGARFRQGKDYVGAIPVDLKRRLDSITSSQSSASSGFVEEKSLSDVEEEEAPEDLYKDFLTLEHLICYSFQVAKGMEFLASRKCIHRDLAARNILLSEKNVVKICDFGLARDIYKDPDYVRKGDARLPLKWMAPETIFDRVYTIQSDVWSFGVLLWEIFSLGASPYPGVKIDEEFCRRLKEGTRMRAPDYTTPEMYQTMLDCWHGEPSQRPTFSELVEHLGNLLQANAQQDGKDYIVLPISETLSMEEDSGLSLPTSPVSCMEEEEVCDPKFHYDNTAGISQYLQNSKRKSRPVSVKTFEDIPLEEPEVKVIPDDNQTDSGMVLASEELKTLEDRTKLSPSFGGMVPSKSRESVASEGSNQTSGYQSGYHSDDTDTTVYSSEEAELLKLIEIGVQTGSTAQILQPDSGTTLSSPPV

Compound	IC50 (VEGFR2)	IC50 [1]	IC50 (PDGFRβ)	IC50 (VEGFR1)
Cc1ccc(F)c(NC(=O)Nc2ccc(Oc3ccnc4cc(C(=O)NCCCN5CCCC(CO)C5)sc34)cc2F)c1 (stereo not drawn) [Example 36, 7-[3-fluoro-4-({[(2-fluoro-5-methylphenyl)amino]carbonyl}amino)phenoxy]-N-{3-[3-(hydroxymethyl)piperidin-1-yl]propyl}thieno[3,2-b]pyridine-2-carboxamide]	–	7 nM	–	8 nM
Cc1ccc(F)c(NC(=O)Nc2ccc(Oc3ccnc4cc(C(=O)NCCCN5CCN(C)CC5)sc34)cc2F)c1 [Example 34, 7-[3-fluoro-4-({[(2-fluoro-5-methylphenyl)amino]carbonyl}amino)phenoxy]-N-[3-(4-methylpiperazin-1-yl)propyl]thieno[3,2-b]pyridine-2-carboxamide]	–	3 nM	11 nM	6 nM
Cc1ccc(F)c(NC(=O)Nc2ccc(Oc3ccnc4cc(C(=O)NCCCN5CCN(C)CC5)sc34)cc2)c1 [Example 67, 7-[4-({[(2-fluoro-5-methylphenyl)amino]carbonyl}amino)phenoxy]-N-[3-(4-methylpiperazin-1-yl)propyl]thieno[3,2-b]pyridine-2-carboxamide]	2 nM	2 nM	9 nM	–
CCOC(=O)CN1CCN(C(=O)c2cc3nccc(Oc4ccc(NC(=O)Nc5cc(C)ccc5F)c(F)c4)c3s2)CC1 [Example 30, ethyl [4-({7-[3-fluoro-4-({[(2-fluoro-5-methylphenyl)amino]carbonyl}amino)phenoxy]thieno[3,2-b]pyridin-2-yl}carbonyl)piperazin-1-yl]acetate]	–	7 nM	17 nM	112 nM
Cc1ccc(F)c(NC(=O)Nc2ccc(Oc3ccnc4cc(C(=O)NCCCN5CCCCC5)sc34)cc2)c1 [Example 66, 7-[4-({[(2-fluoro-5-methylphenyl)amino]carbonyl}amino)phenoxy]-N-(3-piperidin-1-ylpropyl)thieno[3,2-b]pyridine-2-carboxamide]	16 nM	4 nM	16 nM	–
COC(=O)CN(CCNC(=O)c1cc2nccc(Oc3ccc(NC(=O)Nc4cc(C)ccc4F)c(F)c3)c2s1)CC(=O)OC [Example 27, dimethyl 2,2′-({2-[({7-[3-fluoro-4-({[(2-fluoro-5-methylphenyl)amino]carbonyl}amino)phenoxy]thieno[3,2-b]pyridin-2-yl}carbonyl)amino]ethyl}imino)diacetate]	–	16 nM	17 nM	11 nM
CCOC(=O)CN1CCN(C(=O)CN2CCN(C(=O)c3cc4nccc(Oc5ccc(NC(=O)Nc6cc(C)ccc6F)c(F)c5)c4s3)CC2)CC1 [Example 29, ethyl (4-{[4-({7-[3-fluoro-4-({[(2-fluoro-5-methylphenyl)amino]carbonyl}amino)phenoxy]thieno[3,2-b]pyridin-2-yl}carbonyl)piperazin-1-yl]acetyl}piperazin-1-yl)acetate]	–	5 nM	13 nM	10 nM
Cc1ccc(F)c(NC(=O)Nc2ccc(Oc3ccnc4cc(C(=O)NCCCN5CCCC5)sc34)cc2)c1 [Example 68, 7-[4-({[(2-fluoro-5-methylphenyl)amino]carbonyl}amino)phenoxy]-N-(3-pyrrolidin-1-ylpropyl)thieno[3,2-b]pyridine-2-carboxamide]	20 nM	6 nM	16 nM	–
COC(=O)CNCCCNC(=O)c1cc2nccc(Oc3ccc(NC(=O)Nc4cc(C)ccc4F)c(F)c3)c2s1 [Example 25, methyl ({3-[({7-[3-fluoro-4-({[(2-fluoro-5-methylphenyl)amino]carbonyl}amino)phenoxy]thieno[3,2-b]pyridin-2-yl}carbonyl)amino]propyl}amino)acetate]	–	5 nM	11 nM	8 nM

The next lines start with the values.

IC50 (VEGFR2)	IC50 [1]	IC50 (PDGFRβ)	IC50 (VEGFR1)	Compound
16 nM	11 nM	277 nM	–	Cc1ccoc1C(=O)Nc1cccc(Oc2ccnc3cc(C(=O)NO)sc23)c1 [Example 75, N-hydroxy-7-{3-[(3-methyl-2-furoyl)amino]phenoxy}thieno[3,2-b]pyridine-2-carboxamide]
–	13 nM	–	7 nM	Cc1ccc(F)c(NC(=O)Nc2ccc(Oc3ccnc4cc(C(=O)NCCCC(=O)O)sc34)cc2F)c1 [Example 64, 4-[({7-[3-fluoro-4-({[(2-fluoro-5-methylphenyl)amino]carbonyl}amino)phenoxy]thieno[3,2-b]pyridin-2-yl}carbonyl)amino]butanoic acid]
87 nM	20 nM	223 nM	–	Cc1ccc(F)c(NC(=O)c2cccc(Oc3ccnc4cc(C(=O)O)sc34)c2)c1 [Example 84, 7-(3-{[(2-fluoro-5-methylphenyl)amino]carbonyl}phenoxy)thieno[3,2-b]pyridine-2-carboxylic acid]
9 nM	16 nM	59 nM	–	COC(=O)CNCCCNC(=O)c1cc2nccc(Oc3cccc(C(=O)Nc4cc(C)ccc4F)c3)c2s1 [Example 87, Methyl {[3-({[7-(3-{[(2-fluoro-5-methylphenyl)amino]carbonyl}phenoxy)thieno[3,2-b]pyridin-2-yl]carbonyl}amino)propyl]amino}acetate]
–	4 nM	15 nM	11 nM	Cc1ccc(F)c(NC(=O)Nc2ccc(Oc3ccnc4cc(C(=O)NCCN)sc34)cc2F)c1 [Example 32, N-(2-aminoethyl)-7-[3-fluoro-4-({[(2-fluoro-5-methylphenyl)amino]carbonyl}amino)phenoxy]thieno[3,2-b]pyridine-2-carboxamide]
162 nM	39 nM	920 nM	–	Cc1ccoc1C(=O)Nc1cccc(Oc2ccnc3cc(C(=O)O)sc23)c1 [Example 72, 7-{3-[(3-methyl-2-furoyl)amino]phenoxy}thieno[3,2-b]pyridine-2-carboxylic acid]
–	7 nM	15 nM	10 nM	Cc1ccc(F)c(NC(=O)Nc2ccc(Oc3ccnc4cc(C(=O)NCCCN5CCOC(CO)C5)sc34)cc2)c1 (stereo not drawn) [Example 16, 7-[4-({[(2-fluoro-5-methylphenyl)amino]carbonyl}amino)phenoxy]-N-{3-[2-(hydroxymethyl)morpholin-4-yl]propyl}thieno[3,2-b]pyridine-2-carboxamide]
–	20 nM	–	16 nM	CCOC(=O)CCCNC(=O)c1cc2nccc(Oc3ccc(NC(=O)Nc4cc(C)ccc4F)cc3)c2s1 [Example 56, ethyl 4-[({7-[4-({[(2-fluoro-5-methylphenyl)amino]carbonyl}amino)phenoxy]thieno[3,2-b]pyridin-2-yl}carbonyl)amino]butanoate]
–	9 nM	13 nM	9 nM	COC(=O)CNCCNC(=O)c1cc2nccc(Oc3ccc(NC(=O)Nc4cc(C)ccc4F)c(F)c3)c2s1 [Example 31, methyl ({2-[({7-[3-fluoro-4-({[(2-fluoro-5-methylphenyl)amino]carbonyl}amino)phenoxy]thieno[3,2-b]pyridin-2-yl}carbonyl)amino]ethyl}amino)acetate]
16 nM	10 nM	74 nM	–	CCNC(=O)c1cc2nccc(Oc3cccc(C(=O)Nc4cc(C)ccc4F)c3)c2s1 [Example 85, N-ethyl-7-(3-{[(2-fluoro-5-methylphenyl)amino]carbonyl}phenoxy)thieno[3,2-b]pyridine-2-carboxamide]
